{
  "source": "paper PMC11982498",
  "about": "(Redox Biology, 2025)",
  "key": {"[1]": {"tested_on": "bio-(G2C4)6 (DNA, i motif) GGCCCCGGCCCCGGCCCCGGCCCCGGCCCCGGCCCC", "test": "SPR", "details": "K+ 100 mM; 20 mM MES, pH 5.5, 25 °C"}, "HK-2 cells": {"tested_on": "HK-2 cells", "test": "MTT cytotoxicity assay, HK-2", "format": "cell-based", "details": "Homo sapiens, incubation for 48 h", "procedure": "SH-SY5Y cells, HepG2 cells, HK-2 cells and HT-22 cells were seeded on 96-well plates (5.0×10^3 per well) with 100 μL of culture medium, and incubated for 12 h at 37 °C in a humidified atmosphere with 5% CO2, and then exposed to various concentrations of B14. After 48 h of treatment at 37 °C in a humidified atmosphere with 5% CO2, 100 μL of 0.5 mg/mL MTT solution was added to each well, and the mixture was further incubated for 4 h. The cells in each well were then treated with DMSO (200 μL for each well), and the culture medium was siphoned off, and the absorbance was recorded at 570 nm. All drug doses were parallel tested in triplicate, and the cytotoxicity was evaluated based on the percentage of cell survival in a dose-dependent manner regarding the negative control. The final IC50 values were determined by using Graph Pad Prism 9.0."}, "(G2C4)6 promoter i-motif": {"target": "(G2C4)6 promoter i-motif", "test": "SPR binding to (G2C4)6 promoter i-motif", "details": "MES buffer pH 5.5"}, "BCL-2 i-motif": {"tested_on": "BCL-2 i-motif", "test": "CD spectra of BCL-2 i-motif", "format": "binding", "procedure": "Figure S5. ESI-MS, UV, CD, and EMSA experiments were performed to examine the effect of B14 on BCL-2 promoter i-motif and G-quadruplex. (A) ESI-MS experiment for oligomer BCL-2 G4 alone, which was annealed in 1 × BPES buffer at pH 7.4. (B) ESI-MS experiment for above oligomer BCL-2 G4 with addition of B14 in 1 × BPES buffer at pH 7.4. (C-D) TO displacement with increasing amount of oligomer BCL-2 i-motif annealed in 1 X BPES buffer at pH 5.5 in the presence of 20 equivalents of B14 or A22. (E) EMSA experiment was performed for the effect of B14 on inducing BCL-2 i-motif formation. The lanes from left to right were as follow: BCL-2 i-motif alone at pH 5.5; BCL-2 i-motif alone at pH 6.2; BCL-2 i-motif plus 1 eq B14 at pH 6.2; BCL-2 i-motif plus 5 eq B14 at pH 6.2; BCL-2 i-motif plus 10 eq B14 at pH 6.2. (F) CD experiment was performed to study the interaction of B14 or A22 with BCL-2 promoter i-motif.\nCD measurements were performed on a Chirascan circular dichroism spectrophotometer (Chirascan, England). A 10 mm path length quartz cuvette was used to record the spectra with a wavelength range of 230-350 nm with a 1 nm bandwidth. CD and CD melting experiments were performed at a fixed i-motif or G-quadruplex concentration (1 μM) with or without a fixed concentration (20 μM) of B14 and Curcumin in different buffers. […]"}, "Aβ1-42 [2]": {"target": "T1, Aβ1-42 (Homo sapiens, UniProt P05067)", "T1 construct": "Aβ1-42 was purchased from Gill Biochemicals Ltd (Shanghai, China); purchased Gill Biochemicals Ltd (Shanghai, China)", "T1 sequence (P05067 672-713 limits assumed)": "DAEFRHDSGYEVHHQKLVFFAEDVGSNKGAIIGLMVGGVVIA", "test": "Congo red binding assay", "format": "biochemical", "details": "20 μM compound, 72 h", "procedure": "(§1) A total of 30 μM Congo red (Aladdin, Shanghai, China) solution (20 mM potassium phosphate, 50 mM NaCl, pH 7.4) was prepared and filtered with a 0.45 μm filter. The Aβ1-42 solutions (30 μM) were co-incubated with B14 (20 μM), A22 (20 μM), or Curcumin (20 μM) at 37 °C protected from light for 72h. The Aβ1-42 solution was mixed with equal volume of Congo red solution, followed by incubation for 30 min. A spectral region from 400 nm to 650 nm was measured by using a UV–vis spectrophotometer (AoE, China).\nas §1, with “red” for “red (Aladdin, Shanghai, China)”, “μM) and” for “μM), A22 (20 μM), or”, “solution and incubated” for “solution, followed by incubation”, “analyzed” for “measured”, “UV-vis” for “UV–vis”"}, "Aβ1-42 [3]": {"target": "T1, Aβ1-42", "test": "Thioflavine T (ThT) assay of self-induced Aβ1-42 aggregation", "format": "biochemical", "procedure": "The experiment was performed following standardized amyloid detection protocols without significant modification. Curcumin (Aladdin, Shanghai, China), a natural inhibitor of Aβ deposition, was used as a positive control with ThT (Aladdin, Shanghai, China) as a fluorescent indicator. 30 μL of freshly formulated Aβ1-42 (30 μM) was incubated without or with A1-16, B1-14, Curcumin at concentration of 40 μM for 24h. Then, it was mixed with 400 μL of freshly formulated ThT (15 μM), which was incubated in the dark for 30 min. Fluorescence signals were recorded using a fluorescence spectrophotometer, and changes in Aβ fibre deposition were determined through the strength of the fluorescence signals. The scanning conditions were set as follows: excitation wavelength at 440 nm, emission wavelength at 480 nm, and slit width of 20 nm.\n^a Self-induced Aβ1-42 aggregation (means ± SD of three experiments). The thioflavin-T fluorescence method was used, and the measurements were carried out in the presence of 40 μM test compound. […]\n[picture] […] The fluorescence intensity of different concentrations of B14 was measured after incubation with Aβ1-42. Data were statistically analyzed as mean ± SEM. (A) ThT fluorescence intensity. (B) IC50 value for B14 against Aβ1-42 aggregation was determined by using ThT fluorescence intensity."}},
  "note": "Entries after “also recorded” stand apart in the source; their conditions may differ.",
  "data": [
    {"smiles": "O=C(CCN1CCOCC1)Nc1ccc2c(c1)c(=O)c1cc(NC(=O)CCN3CCOCC3)ccc1n2-c1ccc2occc2c1", "note": "[Compound B14]", "values": [
      {"measurement": "KD", "setting": "[1]", "value": 33.30, "unit": "µM"},
      {"measurement": "IC50", "setting": "HK-2 cells", "value": "> 100", "unit": "µM"},
      {"measurement": "Kd", "setting": "(G2C4)6 promoter i-motif", "value": 33.3, "unit": "µM"},
      {"measurement": "CD absorption peak of BCL-2 i-motif", "setting": "BCL-2 i-motif", "value": "stronger effect than A22; also recorded: apparently enhanced absorption peak at 286 nm"},
      {"measurement": "absorbance of Congo red in the Aβ1-42 sample", "setting": "Aβ1-42 [2]", "value": "significantly reduced"},
      {"measurement": "inhibition at 40 µM", "setting": "Aβ1-42 [3]; 40 μM compound, ThT fluorescence, read-out: inhibition of Aβ self-aggregation", "value": 78.4, "unit": "%"},
      {"measurement": "IC50", "setting": "Aβ1-42 [3]; ThT fluorescence intensity, read-out: IC50 against Aβ1-42 aggregation", "value": 24, "unit": "µM"}
    ]}
  ]
}
